From patent publication US20220180963A1, “METHOD FOR SELECTING PATIENT SPECIFIC THERAPY” (YISSUM RESEARCH DEVELOPMENT COMPANY OF THE HEBREW …, priority 2018, published 2022)

Legend:
Type in all cases: cell-based
MCF7 cells = test: Survival of MCF7 cells after drug treatment (methylene blue); conditions: maximal killing, FIG. 14H
Method: Schematic figures of each unbalanced process are shown. […] For each cell line the combination of drugs predicted to target the complete unbalanced signaling signature was tested (marked with an asterix), as well as combinations that were predicted to only partially target the unbalanced signaling flux, each drug alone and taxol. […] Stain-free imaging was used to ensure equal loading.
Indeed, 4-OHT killed only up to 50% of the cells (FIG. 14H). […] Similar to the case in MDA468 cells, the double combination consisting of T and LY was expected to target all unbalanced processes in these cells, however since there are 4 distinct unbalanced processes that need to be targeted, addition of a third drug is apparently necessary to enhance the effect (FIG. 14G-I).

MDA-MB-231 cells = test: Survival of MDA-MB-231 cells after drug treatment (methylene blue); conditions: FIG. 14B; for killing / survival of MDA231 cells: methylene blue survival
Source text: (§1) FIG. 14A-I. Experimental validation of the approach (14A, 14D, 14G) Diagrams of signaling signatures of MDA-MB-231, MDA-MB-468 and MCF7 cells, according to SA based analysis. Schematic figures of each unbalanced process are shown. Drug predictions are indicated for each cell line, including the processes that they are predicted to target. (14B, 14E, 14H) Bar charts of survival rates in response to different treatments (as measured by methylene blue). For each cell line the combination of drugs predicted to target the complete unbalanced signaling signature was tested (marked with an asterix), as well as combinations that were predicted to only partially target the unbalanced signaling flux, each drug alone and taxol. For MDA468 a triple combination was tested as well (marked with two asterix signs, shown in the inset in FIG. 14E). […] Stain-free imaging was used to ensure equal loading. […] Bar chart inserts show quantified relative expression of the investigated protein.
To validate the approach, we analyzed a dataset comprising RPPA measurements from 10 cell lines, including breast, ovarian, and oesophageal cancer, and assigned a barcode and drug combinations to each cell line. The predictions were made such that for each cell line, at least one protein hub from every active unbalanced process will be inhibited, aiming to collapse the sample-specific altered signaling network. Three breast cancer cell lines were chosen for experimental validation: MDA-MB-231 (MD231), MDA-MB-468 (MD468), and MCF7. The two formers represent triple negative breast cancer (TNBC) against which no targeted therapy exists in clinics today. TNBC is often treated with non-specific chemotherapy, such as taxol^1. MCF7 represent luminal type A breast cancer, routinely treated with the ERα inhibitor, tamoxifen, and in some cases chemotherapy such as taxanes.

MDA-MB-468 cells = test: Survival of MDA-MB-468 cells after drug treatment (methylene blue); conditions: maximal killing, FIG. 14E
Source text: as §1
To validate the approach, we analyzed a dataset comprising RPPA measurements from 10 cell lines, including breast, ovarian, and oesophageal cancer, and assigned a barcode and drug combinations to each cell line. The predictions were made such that for each cell line, at least one protein hub from every active unbalanced process will be inhibited, aiming to collapse the sample-specific altered signaling network. […]

Row | Compound | cells killed (MCF7 cells) | killing / survival of MDA231 cells (MDA-MB-231 cells) | cells killed (MDA-MB-468 cells) [%] | concentration at which efficacy of the treatment plateaued (MDA-MB-231 cells) [nM]
1 | 4-hydroxy tamoxifen [4-OHT] | up to 50% |  |  | 
2 | C#Cc1cccc(Nc2ncnc3cc(OCCOC)c(OCCOC)cc23)c1 [erlotinib] |  | no effect |  | 
3 | CC(=O)O[C@H]1C(=O)[C@@]2(C)[C@H]([C@H](OC(=O)c3ccccc3)[C@]3(O)C[C@H](OC(=O)[C@H](O)[C@@H](NC(=O)c4ccccc4)c4ccccc4)C(C)=C1C3(C)C)[C@]1(OC(C)=O)CO[C@@H]1C[C@@H]2O [taxol] |  | efficiently killed | ~80 | 100
4 | CC(=O)Nc1cccc(-n2c(=O)n(C3CC3)c(=O)c3c(Nc4ccc(I)cc4F)n(C)c(=O)c(C)c32)c1 [trametinib] |  |  |  | 100
